Key:
[1] = test system: DLD-1; test: cells; type: cell-based; details: for Basal_Viability ATP DLD-1 IC50/EC50: assay number 23
[2] = test system: RKO; test: cells; type: cell-based; details: for Basal_Viability ATP RKO IC50/EC50: assay number 29
[3] = test system: Colo320; test: cells; type: cell-based; details: for Basal_Viability ATP Colo 320 IC50/EC50: assay number 27
[4] = test system: ECFC/ADSC co-culture cell nuclei number
[5] = test system: HCT116 cells treated with a GSK3β inhibitor; test: cells; type: cell-based; details: for GSK3b inh pretreated_Viability ATP HCT116 IC50/EC50: assay number 26, GSK3b inhibitor pretreated
[6] = test system: HCT116; test: cells; type: cell-based; details: basal; for Basal_Viability ATP HCT116 IC50/EC50: assay number 25
[7] = test system: SW480; test: cells; type: cell-based; details: for Basal_Viability ATP SW480 IC50/EC50: assay number 24
[8] = test system: SNU-C1; test: cells; type: cell-based; details: for Basal_Viability ATP SNU-C1 IC50/EC50: assay number 30
[9] = test system: HT-29; test: cells; type: cell-based; details: for Basal_Viability ATP HT-29 IC50/EC50: assay number 28
[10] = test system: endothelial tube formation in co-cultures of ECFCs and ADSCs treated with VEGF; test: cells; type: cell-based, human

SMILES | Basal_Viability ATP DLD-1 IC50/EC50 ([1]; basal) | Basal_Viability ATP RKO IC50/EC50 ([2]; basal) | Basal_Viability ATP Colo 320 IC50/EC50 ([3]; basal) | VEGF_ADSC\ECFC Angio Hoechst NucArea IC50/EC50 [4] | GSK3b inh pretreated_Viability ATP HCT116 IC50/EC50 [5] | Basal_Viability ATP HCT116 IC50/EC50 [6] | Basal_Viability ATP SW480 IC50/EC50 ([7]; basal) | Basal_Viability ATP SNU-C1 IC50/EC50 ([8]; basal) | Basal_Viability ATP HT-29 IC50/EC50 ([9]; basal) | VEGF_ADSC\ECFC Angio CD31 TubeArea IC50/EC50 [10] | Basal_Viability ATP DLD-1 IC50/EC50 ([1]; concentration response) | Basal_Viability ATP RKO IC50/EC50 ([2]; concentration response) | Basal_Viability ATP Colo 320 IC50/EC50 ([3]; concentration response) | GSK3b inh pretreated_Viability ATP HCT116 IC50/EC50 ([5]; concentration response) | Basal_Viability ATP HCT116 IC50/EC50 ([6]; concentration response) | Basal_Viability ATP SW480 IC50/EC50 ([7]; concentration response) | Basal_Viability ATP SNU-C1 IC50/EC50 ([8]; concentration response) | Basal_Viability ATP HT-29 IC50/EC50 ([9]; concentration response) | other results
Cc1c(O)cc2c(c1C)O[C@](C)(CCC[C@H](C)CCC[C@H](C)CCCC(C)C)CC2 [NCGC00185764-03] | > 20 µM | > 20 µM | > 20 µM | > 10 µM | > 20 µM | > 20 µM | > 20 µM | > 20 µM | > 20 µM | > 10 µM | – | – | – | – | – | – | – | – | –
COC(=O)C1=C(C)NC(C)=C(C(=O)O[C@@H]2CCCN(Cc3ccccc3)C2)[C@@H]1c1cccc([N+](=O)[O-])c1.Cl [NCGC00185768-01] | – | – | – | > 10 µM | 5.3147 µM | 4.2797 µM | – | – | – | > 10 µM | – | – | – | – | – | – | – | – | Basal_Viability ATP DLD-1 IC50/EC50 [1]: 7.9596 µM; Basal_Viability ATP RKO IC50/EC50 [2]: 8.0546 µM; Basal_Viability ATP Colo 320 IC50/EC50 [3]: 19.5148 µM; Basal_Viability ATP SW480 IC50/EC50 [7]: > 20 µM; Basal_Viability ATP SNU-C1 IC50/EC50 [8]: 5.7601 µM; Basal_Viability ATP HT-29 IC50/EC50 [9]: 5.2728 µM
CCCCCCCCCCCCCCCCCCOP(=O)([O-])OC1CC[N+](C)(C)CC1 [NCGC00187909-02] | – | – | – | > 10 µM | – | – | – | – | – | > 10 µM | > 20 µM | 2.0992 µM | 2.358 µM | 5.7889 µM | 3.1704 µM | 0.8519 µM | > 20 µM | 6.9016 µM | –
CCOC(=O)/C=C(C)/C=C/C[C@@H](C)CCCC(C)C [NCGC00248275-02] | – | – | – | > 10 µM | – | – | – | – | – | > 10 µM | > 20 µM | > 20 µM | > 20 µM | > 20 µM | > 20 µM | > 20 µM | > 20 µM | > 20 µM | –
NC(=O)n1c(O)c(C(=O)c2cccs2)c2cc(Cl)ccc21 [NCGC00263542-01] | – | – | – | – | – | – | – | – | – | – | – | – | – | – | – | – | – | – | IC50/EC50, Basal_Viability ATP DLD-1 (assay number 23) ([1]; basal): 6.9467 µM; IC50/EC50, Basal_Viability ATP RKO (assay number 29) ([2]; basal): 4.703 µM; IC50/EC50, Basal_Viability ATP Colo 320 (assay number 27) ([3]; basal): 1.643 µM; IC50/EC50, VEGF_ADSC\ECFC Angio Hoechst NucArea (assay number 3) [4]: > 10 µM; IC50/EC50, GSK3b inh pretreated_Viability ATP HCT116 (assay number 26) ([5]; GSK3b inh pretreated): 3.787 µM; IC50/EC50, Basal_Viability ATP HCT116 (assay number 25) [6]: 2.309 µM; IC50/EC50, Basal_Viability ATP SW480 (assay number 24) ([7]; basal): 1.02 µM; IC50/EC50, Basal_Viability ATP SNU-C1 (assay number 30) ([8]; basal): 0.5375 µM; IC50/EC50, Basal_Viability ATP HT-29 (assay number 28) ([9]; basal): 5.6005 µM; IC50/EC50, VEGF_ADSC\ECFC Angio CD31 TubeArea (assay number 2) [10]: > 10 µM
C/C(=N\O)[C@@H](C)NCC(C)(C)CN[C@H](C)/C(C)=N/O [NCGC00319018-01] | > 20 µM | > 20 µM | > 20 µM | > 10 µM | > 20 µM | > 20 µM | > 20 µM | > 20 µM | > 20 µM | > 10 µM | – | – | – | – | – | – | – | – | –

From PMC4503722, “Novel Phenotypic Outcomes Identified for a Public Collection of Approved Drugs from a Publicly Accessible Panel of Assays” (PLoS ONE, 2015)
